Reference: patent publication US20230382924A1, “MODULATORS OF CYSTIC FIBROSIS TRANSMEMBRANE CONDUCTANCE REGULATOR” (VERTEX PHARMACEUTICALS INCORPORATED, priority 2020, published 2023)

What was measured:
CFTR [1] = biological target: T1, CFTR (Homo sapiens, UniProt P13569); experiment: Membrane Potential Dye, Enteroid Assay B; assay type: cell-based; conditions: for EC50: read-out: Ent. B EC50
Procedure: Base medium (ADF+++) consisted of Advanced DMEM/Ham's F12, 2 mM Glutamax, 10 mM HEPES, […] penicillin/streptomycin.
Bath 1 Buffer consisted of 1 mM MgCl2, 160 mM NaCl, 4.5 mM KCl, 10 mM HEPES, 10 mM Glucose, 2 mM CaCl2).
Chloride Free Buffer consisted of 1 mM Magnesium Gluconate, 2 mM Calcium Gluconate, 4.5 mM Potassium Gluconate, 160 mM Sodium Gluconate, 10 mM HEPES, 10 mM Glucose.
Bath 1 Dye Solution consisted of Bath 1 Buffer, 0.04% Pluronic F127, 20 μM Methyl Oxonol, 30 μM CaCCinh-A01, 30 μM Chicago Sky Blue.
Chloride Free Dye Solution consisted of Chloride Free Buffer, 0.04% Pluronic F127, 20 μM Methyl Oxonol, 30 μM CaCCinh-A01, 30 μM Chicago Sky Blue.
3. Enteroid Cell Harvesting and Seeding
Cells were recovered in cell recovery solution, collected by centrifugation at 650 rpm for 5 min at 4° C., resuspended in TryPLE and incubated for 5 min at 37° C. Cells were then collected by centrifugation at 650 rpm for 5 min at 4° C. and resuspended in IEMM containing 10 μM ROCK inhibitor (RI).
5. Membrane Potential Dye, Enteroid Assay B
Briefly, cells were washed 5 times in Bath 1 Buffer. Bath 1 Dye Solution was added and the cells were incubated for 25 min at room temperature. Following dye incubation, cells were washed 3 times in Chloride Free Dye Solution. Chloride transport was initiated by addition of Chloride Free Dye Stimulation Solution and the fluorescence signal was read for 15 min.

CFTR [2] = biological target: T1, CFTR; experiment: Membrane Potential Dye, Enteroid Assay A; assay type: cell-based; conditions: for EC50: read-out: Ent. A EC50
Procedure, shortened: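 Enteroid cells were loaded with methyl oxonol membrane potential dye (plus CaCCinh-A01 and Chicago Sky Blue) for 25 min at room temperature. Chloride transport was started by switching to chloride-free gluconate stimulation solution, with fluorescence read for 15 min. Activity was expressed as % of a triple-combination CFTR modulator control (3 μM, 3 μM, 300 nM acute).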

T1 sequence (P13569 with tags, fused parts or gaps DEL508-508): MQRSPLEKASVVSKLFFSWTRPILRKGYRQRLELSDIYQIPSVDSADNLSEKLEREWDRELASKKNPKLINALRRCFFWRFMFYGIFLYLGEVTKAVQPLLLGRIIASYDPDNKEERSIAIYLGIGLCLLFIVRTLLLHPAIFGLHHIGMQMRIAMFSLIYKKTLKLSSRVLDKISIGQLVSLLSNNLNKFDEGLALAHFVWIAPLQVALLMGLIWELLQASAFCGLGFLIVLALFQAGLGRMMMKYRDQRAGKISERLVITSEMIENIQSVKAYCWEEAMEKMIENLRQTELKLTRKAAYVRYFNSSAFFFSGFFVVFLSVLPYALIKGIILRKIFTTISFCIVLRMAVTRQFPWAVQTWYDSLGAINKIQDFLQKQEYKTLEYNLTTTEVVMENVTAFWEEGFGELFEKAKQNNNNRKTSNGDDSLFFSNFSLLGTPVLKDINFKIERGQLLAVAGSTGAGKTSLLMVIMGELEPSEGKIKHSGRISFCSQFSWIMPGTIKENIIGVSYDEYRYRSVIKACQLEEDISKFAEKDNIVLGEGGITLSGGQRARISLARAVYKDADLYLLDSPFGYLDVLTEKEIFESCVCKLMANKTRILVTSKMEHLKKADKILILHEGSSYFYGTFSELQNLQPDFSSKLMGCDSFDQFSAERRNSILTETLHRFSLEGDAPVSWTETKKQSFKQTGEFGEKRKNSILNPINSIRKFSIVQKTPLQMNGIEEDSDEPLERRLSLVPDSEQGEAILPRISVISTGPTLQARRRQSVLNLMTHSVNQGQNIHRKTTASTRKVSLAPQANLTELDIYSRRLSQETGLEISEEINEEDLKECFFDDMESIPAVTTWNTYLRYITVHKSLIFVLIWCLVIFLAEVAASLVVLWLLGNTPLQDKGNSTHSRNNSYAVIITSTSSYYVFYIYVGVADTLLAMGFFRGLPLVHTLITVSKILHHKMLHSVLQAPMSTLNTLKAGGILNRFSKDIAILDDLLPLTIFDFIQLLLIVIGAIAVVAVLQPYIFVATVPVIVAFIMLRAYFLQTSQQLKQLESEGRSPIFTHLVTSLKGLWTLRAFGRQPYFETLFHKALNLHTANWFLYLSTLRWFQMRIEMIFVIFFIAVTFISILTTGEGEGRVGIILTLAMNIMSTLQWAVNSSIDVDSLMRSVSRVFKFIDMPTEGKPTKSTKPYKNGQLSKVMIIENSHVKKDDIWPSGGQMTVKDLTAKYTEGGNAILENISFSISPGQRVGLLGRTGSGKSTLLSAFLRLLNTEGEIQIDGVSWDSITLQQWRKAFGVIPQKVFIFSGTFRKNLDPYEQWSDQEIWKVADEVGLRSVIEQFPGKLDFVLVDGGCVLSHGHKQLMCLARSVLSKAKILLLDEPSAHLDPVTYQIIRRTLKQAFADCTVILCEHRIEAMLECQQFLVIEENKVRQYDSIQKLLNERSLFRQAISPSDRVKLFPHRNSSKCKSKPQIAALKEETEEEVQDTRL

Ent. B Max Activity (CFTR [1]; Table 9) | EC50 (CFTR [1]; Table 9) | Ent. A Max Activity (CFTR [2]; Table 9) | EC50 (CFTR [2]; Table 9) | Ent. B Max Activity (CFTR [1]; Enteroid Assay B) | EC50 (CFTR [1]; Enteroid Assay B) | Ent. A Max Activity (CFTR [2]; Enteroid Assay A) | Ent. B Max Activity (CFTR [1]; Table 8) | EC50 (CFTR [1]; Table 8) | EC50 (CFTR [2]; Table 8) | Compound
+++ (+++ is >60%) | < 1000 nM | +++ (+++ is >60%) | < 1000 nM | – | – | – | – | – | – | Cc1cccc(C)c1-c1cc2nc(n1)NS(=O)(=O)c1cccc(c1)C(=O)N[C@@H](C(CC(C)C)c1ccccc1)CO2 (stereo in doubt) [Compound 181]
+++ (+++ is >60%) | < 1000 nM | +++ (+++ is >60%) | < 1000 nM | – | – | – | – | – | – | Cc1cccc(C)c1-c1cc2nc(n1)NS(=O)(=O)c1cccc(c1)C(=O)N[C@@H](C(CC(C)C)c1ccccc1)CO2 (stereo in doubt) [Compound 183]
++ (++ is 30-60%) | < 1000 nM | +++ (+++ is >60%) | < 1000 nM | – | – | – | – | – | – | Cc1cccc(C)c1-c1cc2nc(n1)NS(=O)(=O)c1cccc(c1)C(=O)N[C@@H]1CN(C3CC4(CCCC4)C3)C[C@H]1O2 [Compound 56, (3R,7R)-19-(2,6-Dimethylphenyl)-5-{spiro[3.4]octan-2-yl}-2-oxa-15λ^6-thia-5,8,16,18,21-pentaazatetracyclo[15.3.1.110,14.03,7]docosa-1(20),10(22),11,13,17(21),18-hexaene-9,15,15-trione]
++ (++ is 30-60%) | < 1000 nM | +++ (+++ is >60%) | < 1000 nM | – | – | – | – | – | – | Cc1cccc(C)c1-c1cc2nc(n1)NS(=O)(=O)c1cccc(c1)C(=O)N[C@@H]1CN(c3ccc(C(F)(F)F)cn3)C[C@H]1O2 [Compound 62, (3R,7R)-19-(2,6-Dimethylphenyl)-5-[5-(trifluoromethyl)pyridin-2-yl]-2-oxa-15λ^6-thia-5,8,16,18,21-pentaazatetracyclo[15.3.1.110,14.03,7]docosa-1(20),10(22),11,13,17(21),18-hexaene-9,15,15-trione]
+++ (+++ is >60%) | < 1000 nM | +++ (+++ is >60%) | < 1000 nM | – | – | – | – | – | – | Cc1cccc(C)c1-c1cc2nc(n1)NS(=O)(=O)c1cccc(c1)C(=O)N[C@@H]1CN(Cc3ccc(C(C)(C)C)cc3)C[C@H]1O2 [Compound 63, (3R,7R)-5-[(4-tert-Butylphenyl)methyl]-19-(2,6-dimethylphenyl)-2-oxa-15λ^6-thia-5,8,16,18,21-pentaazatetracyclo[15.3.1.110,14.03,7]docosa-1(20),10(22),11,13,17(21),18-hexaene-9,15,15-trione]
++ (++ is 30-60%) | < 1000 nM | +++ (+++ is >60%) | < 1000 nM | – | – | – | – | – | – | Cc1cccc(C)c1-c1cc2nc(n1)NS(=O)(=O)c1cccc(c1)C(=O)N[C@@H]1CN(CCC(C)(C)C)C[C@H]1O2 [Compound 64, (3R,7R)-5-(3,3-Dimethylbutyl)-19-(2,6-dimethylphenyl)-2-oxa-15λ^6-thia-5,8,16,18,21-pentaazatetracyclo[15.3.1.110,14.03,7]docosa-1(20),10(22),11,13,17(21),18-hexaene-9,15,15-trione]
++ (++ is 30-60%) | 3000 to 30000 nM | ++ (++ is 30-60%) | 3000 to 30000 nM | – | – | – | – | – | – | Cc1cccc(C)c1-c1cc2nc(n1)NS(=O)(=O)c1cc(n[nH]1)C(=O)N[C@H](CC(C)C)CO2 [Compound 78, (10R)-15-(2,6-dimethylphenyl)-10-isobutyl-3,3-dioxo-12-oxa-3λ^6-thia-2,5,6,9,16,17-hexazatricyclo[11.3.1.14,7]octadeca-1(17),4(18),6,13,15-pentaen-8-one]
– | – | – | – | ++ (++ is 30-60%) | 3000 to 30000 nM | ++ (++ is 30-60%) | – | – | – | Cc1cccc(C)c1-c1cc2nc(n1)NS(=O)(=O)c1cccc(c1)C(=O)N[C@H](C)CO2 [Compound 95, (11R)-6-(2,6-Dimethylphenyl)-11-methyl-9-oxa-2λ^6-thia-3,5,12,19-tetraazatricyclo[12.3.1.14,8]nonadeca-1(17),4,6,8(19),14(18),15-hexaene-2,2,13-trione]
+++ (+++ is >60%) | < 1000 nM | +++ (+++ is >60%) | < 1000 nM | – | – | – | – | – | – | Cc1cccc(CC2CC2)c1-c1cc2nc(n1)NS(=O)(=O)c1cccc(c1)C(=O)N[C@H](CC(C)C)CO2 [Compound 107, (11R)-6-[2-(cyclopropylmethyl)-6-methyl-phenyl]-11-isobutyl-2,2-dioxo-9-oxa-2λ^6-thia-3,5,12,19-tetrazatricyclo[12.3.1.14,8]nonadeca-1(18),4(19),5,7,14,16-hexaen-13-one]
+++ (+++ is >60%) | < 1000 nM | +++ (+++ is >60%) | < 1000 nM | – | – | – | – | – | – | Cc1cccc(C)c1-c1cc2nc(n1)NS(=O)(=O)c1cccc(c1)C(=O)NC[C@@H](c1ccc(CCC3(C(F)(F)F)CC3)cc1)O2 [Compound 146]
+++ (+++ is >60%) | < 1000 nM | +++ (+++ is >60%) | < 1000 nM | – | – | – | – | – | – | Cc1cccc(Cc2cccc(C)c2-c2cc3nc(n2)NS(=O)(=O)c2cccc(c2)C(=O)N[C@H](CC(C)C)CO3)c1 [Compound 170]
+++ (+++ is >60%) | < 1000 nM | +++ (+++ is >60%) | < 1000 nM | – | – | – | – | – | – | Cc1cccc(C)c1-c1cc2nc(n1)NS(=O)(=O)c1cccc(c1)C(=O)NC(C)(CC(C)C)CO2 (centres unmarked) [Compound 177]
++ (++ is 30-60%) | < 1000 nM | +++ (+++ is >60%) | < 1000 nM | – | – | – | – | – | – | Cc1cccc(C)c1-c1cc2nc(n1)NS(=O)(=O)c1cccc(c1)C(=O)NC[C@@H](c1ccc(CC(C)(C)C)cc1)O2 [Compound 263]
++ (++ is 30-60%) | – | +++ (+++ is >60%) | 3000 to 30000 nM | – | – | – | – | – | – | CCC(C)(C)C(=O)N1C[C@H]2NC(=O)c3cccc(c3)S(=O)(=O)Nc3nc(cc(-c4c(C)cccc4C)n3)O[C@@H]2C1 [Compound 369]
++ (++ is 30-60%) | < 1000 nM | +++ (+++ is >60%) | < 1000 nM | – | – | – | – | – | – | Cc1cccc(C)c1-c1cc2nc(n1)NS(=O)(=O)c1cccc(c1)C(=O)N[C@@H]1CN(c3ncc(C(F)(F)F)cn3)C[C@H]1O2 [Compound 372]
++ (++ is 30-60%) | 3000 to 30000 nM | +++ (+++ is >60%) | 3000 to 30000 nM | – | – | – | – | – | – | Cc1cccc(C)c1-c1cc2nc(n1)NS(=O)(=O)c1cccc(c1)C(=O)N[C@@H]1CN(C(C)C)C[C@H]1O2 [Compound 375]
++ (++ is 30-60%) | < 1000 nM | +++ (+++ is >60%) | < 1000 nM | – | – | – | – | – | – | Cc1cccc(C)c1-c1cc2nc(n1)NS(=O)(=O)c1cccc(c1)C(=O)N[C@@H]1CN(C3CCC4(CC3)CC4)C[C@H]1O2 [Compound 376]
++ (++ is 30-60%) | < 1000 nM | +++ (+++ is >60%) | < 1000 nM | – | – | – | – | – | – | Cc1cccc(C)c1-c1cc2nc(n1)NS(=O)(=O)c1cccc(c1)C(=O)N[C@@H]1CN(C3CC4(CCCCC4)C3)C[C@H]1O2 [Compound 377]
+++ (+++ is >60%) | < 1000 nM | +++ (+++ is >60%) | < 1000 nM | – | – | – | – | – | – | Cc1cccc(C)c1-c1cc2nc(n1)NS(=O)(=O)c1cccc(c1)C(=O)N[C@@H]1CN(CCC3(C(F)(F)F)CC3)C[C@H]1O2 [Compound 378]
++ (++ is 30-60%) | < 1000 nM | +++ (+++ is >60%) | < 1000 nM | – | – | – | – | – | – | Cc1cccc(C)c1-c1cc2nc(n1)NS(=O)(=O)c1cccc(c1)C(=O)N[C@@H]1CN(Cc3ccc(C(F)(F)F)cc3)C[C@H]1O2 [Compound 379]
++ (++ is 30-60%) | – | ++ (++ is 30-60%) | 3000 to 30000 nM | – | – | – | – | – | – | Cc1cccc(C)c1-c1cc2nc(n1)NS(=O)(=O)c1cccc(c1)C(=O)N[C@@H]1CN(C(=O)CC(C)(C)C)C[C@H]1O2 [Compound 381]
+++ (+++ is >60%) | < 1000 nM | +++ (+++ is >60%) | < 1000 nM | – | – | – | – | – | – | Cc1cccc(C)c1-c1cc2nc(n1)NS(=O)(=O)c1cccc(c1)C(=O)N[C@@H]1CN(Cc3ccccc3)C[C@H]1O2 [Compound 383]
++ (++ is 30-60%) | < 1000 nM | +++ (+++ is >60%) | < 1000 nM | – | – | – | – | – | – | Cc1cccc(C)c1-c1cc2nc(n1)NS(=O)(=O)c1cccc(c1)C(=O)NCC(c1ccc(C34CC(C3)C4)cc1)O2 (centres unmarked) [Compound 396]
– | – | – | – | – | – | – | ++ (++ is 306%) | < 1000 nM | < 1000 nM | Cc1ccc(C2CNC(=O)c3cccc(c3)S(=O)(=O)Nc3nc(cc(-c4c(C)cccc4C)n3)O2)cc1 (centres unmarked) [Compound 405]
